Measured values reported in patent US10537552B2, “Substituted 5-hydroxyoxindoles and their use as analgesics and fever reducers” (CARAFE DRUG INNOVATION, LLC, priority 2015, dated 2020).

Assays:
[1] = test system: liver (acute liver toxicity); assay: liver histology (pathohistological examination); type: in vivo, C57BL/6 mice
Experimental: In all experiments, mice were fasted overnight and then allocated randomly to receive either acetaminophen or equimolar dose of 5-hydroxy-7-methyloxindole by the intragastric route. Food was returned 4 h after the treatment. The two experimental groups were:
(a) Lower-dose group: Mice were administered acetaminophen (300 mg/kg) or 5-hydroxy-7-methyloxindole (324 mg/kg). After 7 h, the mice were sacrificed and liver and blood samples were taken for the analysis.
Seven hours after receiving the second injection, mice were sacrificed and liver and blood samples were taken for analysis.
A portion of the liver lobes of each mouse was fixed in 4% buffered paraformaldehyde, dehydrated in increasing concentrations of ethanol, and embedded in paraffin. Then, sections of tissue were cut to […] thickness using a rotary microtome, stained with hematoxylin and eosin, and then analyzed under a microscope.

opioid receptor = opioid receptor binding assay, non-selective, [3H]-naloxone; parameters: species or system rat
Experimental: The non-selective assay was performed according to the procedure described in Childers, European Journal of Pharmacology, 55:11-18, 1979, which is incorporated by reference. In summary, adult Male Sprague-Dawley rats were killed by decapitation and the brains rapidly removed and placed in ice-cold buffer. The cerebral cortex was dissected and homogenized in buffer and the homogenates were further centrifuged. The binding experiments were performed at 25° C. for 40 min. Reaction mixtures contained tissue suspension, unlabeled drug and [^3H]-naloxone (1 nM) radioligand.
(§1) An inhibition greater than about 50% represented significant effects of the test compound. An inhibition of about 25% to about 50% was indicative of weak to moderate effects. An inhibition less than about 25% are not considered significant and may be primarily attributable to variability of the signal around the control level.

COX2 (h) = biological target: T1, COX2 (h) (Homo sapiens, UniProt P35354); assay: COX2 enzyme assay; type: biochemical
T1 construct: host or cells: Sf9 cells
T1 sequence (P35354 18-604): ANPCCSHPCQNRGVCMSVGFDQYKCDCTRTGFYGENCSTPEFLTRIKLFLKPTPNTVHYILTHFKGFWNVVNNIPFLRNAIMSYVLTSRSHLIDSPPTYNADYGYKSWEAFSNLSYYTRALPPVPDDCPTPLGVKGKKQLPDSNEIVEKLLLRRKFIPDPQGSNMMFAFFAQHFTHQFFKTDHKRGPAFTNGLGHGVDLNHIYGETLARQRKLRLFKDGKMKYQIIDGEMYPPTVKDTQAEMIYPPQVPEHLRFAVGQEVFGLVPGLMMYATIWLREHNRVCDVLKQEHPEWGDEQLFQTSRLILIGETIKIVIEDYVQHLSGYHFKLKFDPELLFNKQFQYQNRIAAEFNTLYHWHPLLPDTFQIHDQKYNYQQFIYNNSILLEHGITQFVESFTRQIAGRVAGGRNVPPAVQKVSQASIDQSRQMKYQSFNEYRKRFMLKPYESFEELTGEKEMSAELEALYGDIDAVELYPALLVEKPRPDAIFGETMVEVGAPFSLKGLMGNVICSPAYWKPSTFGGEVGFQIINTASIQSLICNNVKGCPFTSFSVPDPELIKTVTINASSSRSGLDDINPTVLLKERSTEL
Experimental: The assay was performed according to the procedure described in Glaser, European Journal of Pharmacology, 281:107-111, 1995, which is incorporated by reference. Recombinant enzymes were reconstituted in buffer. The enzyme preparations were preincubated with DMSO vehicle or compounds in DMSO for 5 min at 37° C. and the human recombinant enzyme expressed in Sf9 cells.
as §1

[2] = solubility observed when preparing dosing vehicle; type: physicochemical
Experimental: Acetaminophen was acquired from Sigma-Aldrich Corp. (St. Louis, Mo., USA); 5-hydroxy-7-methyloxindole was provided by CaRafe Drug Innovation, LLC (Norristown, Pa., USA) in the form of a powder. […] […] This procedure provided a crude suspension, but it precipitated after some time, therefore vortexing was repeated prior to each injection. Acetaminophen was prepared in the same vehicle (6% Tween® 20 reagent) using light magnetic stirring.

Cc1cc(O)cc2c1NC(=O)C2 [5-hydroxy-7-methyloxindole, 5-Hydroxy-7-methyloxindole]
liver injury on pathohistological examination ([1]; higher-dose protocol: two cumulative injections 2.5 h apart, 7 h after second injection): without visible liver injury | liver injury on pathohistological examination ([1]; lower-dose protocol: acetaminophen 300 mg/kg or 5-hydroxy-7-methyloxindole 324 mg/kg, 7 h): no visible sign of liver injury | binding to opioid receptor, in words (opioid receptor): binds minimally, if at all | Mean Inhibition (%) (opioid receptor; test concentration 1 × 10^−5 M, rat cerebral cortex, [3H]-naloxone 1 nM): −9.7% | binding to COX2 receptor, in words (COX2 (h)): binds minimally, if at all | inhibition at 10 µM (COX2 (h); test concentration 1 × 10^−5 M, human recombinant enzyme expressed in Sf9 cells): -6.8% | solubility ([2]; general statement): low solubility | solubility in saline ([2]; saline, for dosing): not sufficiently soluble
